Reference: patent US20250230155A1 (Vanderbilt University, priority 2021, published 2025)
Where two headings read alike, the source gives them in different places.

Molecular target: T1, human mAChR M4 (Homo sapiens, UniProt P08173)
T1 construct: expressed in transfected cells
T1 sequence (P08173 1-479): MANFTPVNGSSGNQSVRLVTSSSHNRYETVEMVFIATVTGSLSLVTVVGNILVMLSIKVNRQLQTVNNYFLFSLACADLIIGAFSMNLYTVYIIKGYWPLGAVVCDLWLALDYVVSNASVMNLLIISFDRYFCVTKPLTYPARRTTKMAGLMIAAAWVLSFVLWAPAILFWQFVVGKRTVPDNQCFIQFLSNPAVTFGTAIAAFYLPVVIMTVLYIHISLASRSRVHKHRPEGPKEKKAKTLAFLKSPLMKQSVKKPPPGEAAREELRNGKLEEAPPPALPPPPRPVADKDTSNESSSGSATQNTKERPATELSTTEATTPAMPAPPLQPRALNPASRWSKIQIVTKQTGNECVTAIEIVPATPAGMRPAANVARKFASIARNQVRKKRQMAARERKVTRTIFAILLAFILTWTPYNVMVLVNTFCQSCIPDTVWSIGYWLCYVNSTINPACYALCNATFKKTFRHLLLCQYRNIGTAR
Assay: mAChR M4 cell-based functional assay (calcium mobilization, CHO-K1 hM4-Gqi5 cells)
Details: for Emax at 30 µM: CHO-K1, % ACh maximum at 30 μM, human M4; for EC50: increase in the EC20 acetylcholine response, CHO-K1 hM4-Gqi5 cells
Protocol: Human and rat M4 cDNAs, along with the chimeric G protein Gqi5, were transfected into Chinese hamster ovary (CHO-K1) cells purchased from the American Type Culture Collection using Lipofectamine2000. hM4-Gqi5 cells were grown in Ham's F-12 medium containing 10% heat-inactivated fetal bovine serum (FBS), 20 mM HEPES, 50 μg/mL G418 sulfate, and 500 μg/mL Hygromycin B. rM4-Ggi5 cells were grown in DiVEM containing 10% heat-inactivated FBS, 20 mM THEPES, 400 μμg/mL G418 sulfate, and 500 μμg/mL Hygromycin B.
For high throughput measurement of agonist-evoked increases in intracellular calcium, CHO-K1 cells stably expressing muscarinic receptors were plated in growth medium lacking G418 and hygromycin at 15,000 cells/20 μL/well in Greiner 384-well black-walled, tissue culture (TC)-treated, clear-bottom plates (VWR). Cells were incubated overnight at 37° C. and 5% CO2. The next day, cells were washed using an ELX 405 (BioTek) with assay buffer; the final volume was then aspirated to 20 μL. Next, 20 μL of a […] of Fluo-4/acetoxymethyl ester (Invitrogen, Carlsbad, CA), prepared as a 2.3 mM stock in DMSO and mixed in a 1:1 ratio with 10% (w/v) Pluronic F-127 and diluted in assay buffer, was added to the wells and the cell plates were incubated for 50 min at 37° C. and 5% C02. Dye was removed by washing with the ELX 405 and the final volume was aspirated to 20 μL. Compound master plates were formatted in an 11 point concentration-response curve (CRC) format (1:3 dilutions) in 100% DMSO with a starting concentration of 10 mM using a BRAVO liquid handler (Agilent). Test compound CRCs were then transferred to daughter plates (240 nL) using the Echo acoustic plate reformatter (Labcyte, Sunnyvale, CA) and then diluted into assay buffer (40 μL) to a 2× stock using a Thermo Fisher Combi (Thermo Fisher Scientific, Waltham, MA).
Calcium flux was measured using the Functional Drug Screening System (FDSS) 6000 or 7000 (Hamamatsu Corporation, Tokyo, Japan) as an increase in the fluorescent static ratio. Compounds were applied to cells (20 μL, 2×) using the automated system of the FDSS at 2-4 seconds into the protocol and the data were collected at 1 Hz. At 144 seconds, 10 μL of an EC20 concentration of the muscarinic receptor agonist acetylcholine was added (5×), followed by the addition of 12 μL of an EC80 concentration of acetylcholine at the 230 second time point (5×). Agonist activity was analyzed as a concentration-dependent increase in calcium mobilization upon compound addition. Positive allosteric modulator activity was analyzed as a concentration-dependent increase in the EC20 acetylcholine response. Antagonist activity was analyzed as a concentration-dependent decrease in the EC80 acetylcholine response. Concentration-response curves were generated using a four-parameter logistical equation in XLFit curve fitting software (IDBS, Bridgewater, NJ) for Excel (Microsoft, Redmond, WA) or Prism (GraphPad Software, Inc., San Diego, CA).
Compounds were synthesized as described above. Activity (EC50 and Emax) was determined in the mAChR M4 cell-based functional assay as described above and the data are shown in Table 2. The compound number corresponds to the compound numbers used in Table 1.

[1] = positive allosteric modulator activity, read-out: Human M4 EC50

Emax at 30 µM | EC50 [1] | SMILES | Emax (CHO-K1) | EC50 (Human M4 EC50, positive allosteric modulator activity)
52% | ≥ 10000 nM | Cc1cc(C(=O)NC2CCCC2)cnc1N1CCc2ncccc2C1 [compound 65, N-cyclopentyl-6-(7,8-dihydro-5H-1,6-naphthyridin-6-yl)-5-methyl-pyridine-3-carboxamide] | – | –
90% | 10 nM | [2H]C1([2H])Cc2ncc(Nc3ccncc3F)cc2C([2H])([2H])N1c1nnc(C#N)cc1C [Example 606, 6-(3-((3-fluoropyridin-4-yl)amino)-7,8-dihydro-1,6-naphthyridin-6(5H)-yl-5,5,7,7-d4)-5-methylpyridazine-3-carbonitrile] | – | –
56% | 753 nM | [2H]C1([2H])Cc2ncc(Nc3ccncc3C)cc2C([2H])([2H])N1c1nnc(C#N)c(C)c1C [Example 609, 4,5-dimethyl-6-(3-((3-methylpyridin-4-yl)amino)-7,8-dihydro-1,6-naphthyridin-6(5H)-yl-5,5,7,7-d4)pyridazine-3-carbonitrile] | – | –
– | 1030 nM | Cc1nc2c(c(N3CCc4ncc(C(F)(F)F)cc4C3)n1)CCC2 [compound 267, 6-(2-methyl-6,7-dihydro-5H-cyclopenta[d]pyrimidin-4-yl)-3-(trifluoromethyl)-5,6,7,8-tetrahydro-1,6-naphthyridine] | – | –
56% | ≥ 10000 nM | Cc1cc(C(=O)NCc2ncc(Cl)cn2)cnc1N1CCc2ncccc2C1 [compound 146, N-[(5-chloropyrimidin-2-yl)methyl]-6-(7,8-dihydro-5H-1,6-naphthyridin-6-yl)-5-methyl-pyridine-3-carboxamide] | – | –
93% | 211 nM | Cc1nc(Cl)c(C)c(N2CCc3ncc(-c4cnn(CC5CC5)c4)cc3C2)n1 [compound 194, 6-(6-chloro-2,5-dimethyl-pyrimidin-4-yl)-3-[1-(cyclopropylmethyl)pyrazol-4-yl]-7,8-dihydro-5H-1,6-naphthyridine] | – | –
56% | 1420 nM | COc1ccc(Br)cc1CNC(=O)c1cnc(N2CCc3ncccc3C2)c(C)c1 [compound 141, N-[(5-bromo-2-methoxy-phenyl)methyl]-6-(7,8-dihydro-5H-1,6-naphthyridin-6-yl)-5-methyl-pyridine-3-carboxamide] | – | –
53% | 364 nM | Cc1c(C#N)nnc(N2CCc3ncc(-c4ccc(Cl)nc4)cc3C2)c1C [compound 56, 6-[3-(6-chloro-3-pyridyl)-7,8-dihydro-5H-1,6-naphthyridin-6-yl]-4,5-dimethyl-pyridazine-3-carbonitrile] | – | –
56% | 1990 nM | O=C1c2cc(Br)c(N3CCc4ncc(C(F)(F)F)cc4C3)nc2OCCN1Cc1ccccc1 [Example 591, 4-benzyl-7-bromo-8-(3-(trifluoromethyl)-7,8-dihydro-1,6-naphthyridin-6(5H)-yl)-3,4-dihydropyrido[3,2-f][1,4]oxazepin-5(2H)-one] | – | –
70% | 59 nM | [2H]C1([2H])Cc2ncc(Nc3ccncc3C)cc2C([2H])([2H])N1c1ncc(C#N)cc1C [Example 610, 5-methyl-6-(3-((3-methylpyridin-4-yl)amino)-7,8-dihydro-1,6-naphthyridin-6(5H)-yl-5,5,7,7-d4)nicotinonitrile] | – | –
78% | 466 nM | Cc1nn(C)cc1-c1cnc2c(c1)CN(c1nc(NC3CC3)nc(C)c1C)CC2 [compound 272, N-cyclopropyl-4-(3-(1,3-dimethyl-1H-pyrazol-4-yl)-7,8-dihydro-1,6-naphthyridin-6(5H)-yl)-5,6-dimethylpyrimidin-2-amine] | – | –

Second part, the compound before the results:

SMILES | Emax at 30 µM | EC50 [1] | Emax (CHO-K1) | EC50 (Human M4 EC50, positive allosteric modulator activity)
Cc1nc(Cl)c(C)c(N2CCc3ncc(C4CC4)cc3C2)n1 [compound 225, 6-(6-chloro-2,5-dimethylpyrimidin-4-yl)-3-cyclopropyl-5,6,7,8-tetrahydro-1,6-naphthyridine] | – | – | 87% | 57 nM
Cc1c(C#N)nnc(N2CCc3ncc(-c4ccc(N5CC6(COC6)C5)nc4)cc3C2)c1C [Example 332, 6-(3-(6-(2-oxa-6-azaspiro[3.3]heptan-6-yl)pyridin-3-yl)-7,8-dihydro-1,6-naphthyridin-6(5H)-yl)-4,5-dimethylpyridazine-3-carbonitrile] | 83% | 824 nM | – | –
Cc1cc(C(=O)N2CCC2)nnc1N1CCc2ncc(-n3cccn3)cc2C1 [Example 531, (6-(3-(1H-pyrazol-1-yl)-7,8-dihydro-1,6-naphthyridin-6(5H)-yl)-5-methylpyridazin-3-yl)(azetidin-1-yl)methanone] | 83% | 241 nM | – | –
Cc1cc(C(=O)NCC2CCOCC2)cnc1N1CCc2ncc(-c3cn(C)nc3C)cc2C1 [Example 459, 6-(3-(1,3-dimethyl-1H-pyrazol-4-yl)-7,8-dihydro-1,6-naphthyridin-6(5H)-yl)-5-methyl-N-((tetrahydro-2H-pyran-4-yl)methyl)nicotinamide] | 71% | 1190 nM | – | –
Cc1cc(C(=O)N2CC(C)(O)C2)nnc1N1CCc2ncc(N3CCCn4nccc43)cc2C1 [Example 547, (6-(3-(6,7-dihydropyrazolo[1,5-a]pyrimidin-4(5H)-yl)-7,8-dihydro-1,6-naphthyridin-6(5H)-yl)-5-methylpyridazin-3-yl)(3-hydroxy-3-methylazetidin-1-yl)methanone] | 122% | 40 nM | – | –
Cc1cc(C(=O)N2CC(C)C2)nnc1N1CCc2ncc(N3CCCn4nccc43)cc2C1 [Example 549, (6-(3-(6,7-dihydropyrazolo[1,5-a]pyrimidin-4(5H)-yl)-7,8-dihydro-1,6-naphthyridin-6(5H)-yl)-5-methylpyridazin-3-yl)(3-methylazetidin-1-yl)methanone] | 120% | 56 nM | – | –
Cc1cc(C#N)cnc1N1CCc2ncc(-c3cc(F)ncc3F)cc2C1 [Example 337, 6-(3-(2,5-difluoropyridin-4-yl)-7,8-dihydro-1,6-naphthyridin-6(5H)-yl)-5-methylnicotinonitrile] | 71% | 270 nM | – | –
Cc1c(C(=O)Nc2ccncc2)nnc(N2CCc3ncc(C(F)(F)F)cc3C2)c1C [Example 466, 4,5-dimethyl-N-(pyridin-4-yl)-6-(3-(trifluoromethyl)-7,8-dihydro-1,6-naphthyridin-6(5H)-yl)pyridazine-3-carboxamide] | 98% | 111 nM | – | –
Cc1cc(C#N)cnc1N1Cc2cc(C(F)(F)F)cnc2CC1C (stereo not shown) [Example 366, 5-methyl-6-(7-methyl-3-(trifluoromethyl)-7,8-dihydro-1,6-naphthyridin-6(5H)-yl)nicotinonitrile] | 96% | 305 nM | – | –
Cc1cc(C#N)cnc1N1CCc2ncc(N3CCO[C@H](c4ccccc4)C3)cc2C1 [Example 375, (R)-5-methyl-6-(3-(2-phenylmorpholino)-7,8-dihydro-1,6-naphthyridin-6(5H)-yl)nicotinonitrile] | 85% | 1320 nM | – | –
Cc1c(C#N)nnc(N2CCc3ncc(N4CCOC(c5ccccn5)C4)cc3C2)c1C (stereo not shown) [Example 380, 4,5-dimethyl-6-(3-(2-(pyridin-2-yl)morpholino)-7,8-dihydro-1,6-naphthyridin-6(5H)-yl)pyridazine-3-carbonitrile] | 63% | 2150 nM | – | –
